Laboratory results from ChEMBL document CHEMBL1201862, “PubChem BioAssay data set” (2004).
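Grown in 96-well plates, cells were treated for 48 hours with each compound at five concentrations. Insufficient inhibition: endpoint recorded as highest concentration tested. GI50 is the concentration that inhibits growth by half.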 Calls of active or inactive are those of the source. Rule as the data show it: active = GI50 up to about 1.1 µM and inactive = higher.

Key:
Assay in all cases: growth of human tumour cells (NCI), 48 h
786-0 = tested on: 786-0
A498 = tested on: A498
A549 = tested on: A549
ACHN = tested on: ACHN
BT-549 = tested on: BT-549
CAKI-1 = tested on: CAKI-1
CCRF-CEM = tested on: CCRF-CEM
COLO 205 = tested on: COLO 205
DU-145 = tested on: DU-145
EKVX = tested on: EKVX
HCC 2998 = tested on: HCC 2998
HCT-116 = tested on: HCT-116
HCT-15 = tested on: HCT-15
HL-60 = tested on: HL-60
HOP-62 = tested on: HOP-62
HOP-92 = tested on: HOP-92
HT-29 = tested on: HT-29
Hs-578T = tested on: Hs-578T
IGROV-1 = tested on: IGROV-1
K562 = tested on: K562
KM12 = tested on: KM12
LOX IMVI = tested on: LOX IMVI
MCF7 = tested on: MCF7
MDA-MB-231 = tested on: MDA-MB-231
MDA-MB-435 = tested on: MDA-MB-435
MDA-N = tested on: MDA-N
MOLT-4 = tested on: MOLT-4
Malme-3M = tested on: Malme-3M
NCI-H226 = tested on: NCI-H226
NCI-H23 = tested on: NCI-H23
NCI-H460 = tested on: NCI-H460
NCI-H522 = tested on: NCI-H522
NCI/ADR-RES = tested on: NCI/ADR-RES
OVCAR-3 = tested on: OVCAR-3
OVCAR-4 = tested on: OVCAR-4
OVCAR-5 = tested on: OVCAR-5
OVCAR-8 = tested on: OVCAR-8
PC-3 = tested on: PC-3
RPMI-8226 = tested on: RPMI-8226
RXF 393 = tested on: RXF 393
SF-268 = tested on: SF-268
SF-295 = tested on: SF-295
SF-539 = tested on: SF-539
SK-MEL-28 = tested on: SK-MEL-28
SK-MEL-5 = tested on: SK-MEL-5
SN12C = tested on: SN12C
SNB-19 = tested on: SNB-19
SNB-75 = tested on: SNB-75
SR = tested on: SR
SW-620 = tested on: SW-620
TK-10 = tested on: TK-10
U-251 = tested on: U-251
UACC-257 = tested on: UACC-257
UO-31 = tested on: UO-31
M14 = tested on: M14
SK-MEL-2 = tested on: SK-MEL-2
SK-OV-3 = tested on: SK-OV-3
T47D = tested on: T47D
UACC-62 = tested on: UACC-62

Question: With `Cn1c(=O)c(-c2ccccc2)c(O)c2ccccc21` as the molecule, how does the GI50 (786-0) read?
Answer: > 100 µM (inactive)

Question: And the GI50 (A498)?
Answer: > 100 µM (inactive)

Question: What about the GI50 (A549) of the same molecule?
Answer: > 100 µM (inactive)

Question: And the GI50 (ACHN)?
Answer: > 100 µM (inactive)

Question: And the GI50 (BT-549)?
Answer: > 100 µM (inactive)

Question: What about the GI50 (CAKI-1) of the same molecule?
Answer: > 100 µM (inactive)

Question: And the GI50 (CCRF-CEM)?
Answer: > 100 µM (inactive)

Question: And the GI50 (COLO 205)?
Answer: > 100 µM (inactive)

Question: What about the GI50 (DU-145) of the same molecule?
Answer: > 100 µM (inactive)

Question: And the GI50 (EKVX)?
Answer: > 100 µM (inactive)

Question: And the GI50 (HCC 2998)?
Answer: > 100 µM (inactive)

Question: And the GI50 (HCT-116)?
Answer: > 100 µM (inactive)

Question: What about the GI50 (HCT-15) of the same molecule?
Answer: > 100 µM

Question: And the GI50 (HL-60)?
Answer: > 100 µM (inactive)

Question: And the GI50 (HOP-62)?
Answer: > 100 µM (inactive)

Question: And the GI50 (HOP-92)?
Answer: > 100 µM (inactive)

Question: And the GI50 (HT-29)?
Answer: > 100 µM (inactive)

Question: And the GI50 (Hs-578T)?
Answer: 66.4 µM (inactive)

Question: And the GI50 (IGROV-1)?
Answer: > 100 µM (inactive)

Question: And the GI50 (K562)?
Answer: > 100 µM (inactive)

Question: What about the GI50 (KM12) of the same molecule?
Answer: > 100 µM (inactive)

Question: What about the GI50 (LOX IMVI) of the same molecule?
Answer: > 100 µM (inactive)

Question: What about the GI50 (MCF7) of the same molecule?
Answer: > 100 µM (inactive)

Question: What about the GI50 (MDA-MB-231) of the same molecule?
Answer: > 100 µM (inactive)

Question: And the GI50 (MDA-MB-435)?
Answer: > 100 µM (inactive)

Question: And the GI50 (MDA-N)?
Answer: > 100 µM (inactive)

Question: And the GI50 (MOLT-4)?
Answer: > 100 µM (inactive)

Question: What about the GI50 (Malme-3M) of the same molecule?
Answer: > 100 µM (inactive)

Question: What about the GI50 (NCI-H226) of the same molecule?
Answer: > 100 µM (inactive)

Question: What about the GI50 (NCI-H23) of the same molecule?
Answer: > 100 µM (inactive)

Question: And the GI50 (NCI-H460)?
Answer: > 100 µM (inactive)

Question: And the GI50 (NCI-H522)?
Answer: > 100 µM (inactive)

Question: And the GI50 (NCI/ADR-RES)?
Answer: > 100 µM (inactive)

Question: And the GI50 (OVCAR-3)?
Answer: > 100 µM (inactive)

Question: What about the GI50 (OVCAR-4) of the same molecule?
Answer: > 100 µM (inactive)

Question: And the GI50 (OVCAR-5)?
Answer: > 100 µM (inactive)

Question: And the GI50 (OVCAR-8)?
Answer: > 100 µM (inactive)

Question: What about the GI50 (PC-3) of the same molecule?
Answer: > 100 µM (inactive)

Question: What about the GI50 (RPMI-8226) of the same molecule?
Answer: > 100 µM (inactive)

Question: And the GI50 (RXF 393)?
Answer: > 100 µM (inactive)

Question: What about the GI50 (SF-268) of the same molecule?
Answer: > 100 µM (inactive)

Question: And the GI50 (SF-295)?
Answer: > 100 µM (inactive)

Question: And the GI50 (SF-539)?
Answer: > 100 µM (inactive)

Question: And the GI50 (SK-MEL-28)?
Answer: > 100 µM (inactive)

Question: And the GI50 (SK-MEL-5)?
Answer: > 100 µM (inactive)

Question: What about the GI50 (SN12C) of the same molecule?
Answer: > 100 µM (inactive)

Question: And the GI50 (SNB-19)?
Answer: > 100 µM (inactive)

Question: What about the GI50 (SNB-75) of the same molecule?
Answer: 0.92 µM (active)

Question: And the GI50 (SR)?
Answer: 42.5 µM (inactive)

Question: What about the GI50 (SW-620) of the same molecule?
Answer: > 100 µM (inactive)

Question: And the GI50 (TK-10)?
Answer: > 100 µM (inactive)

Question: What about the GI50 (U-251) of the same molecule?
Answer: > 100 µM (inactive)

Question: What about the GI50 (UACC-257) of the same molecule?
Answer: > 100 µM (inactive)

Question: What about the GI50 (UO-31) of the same molecule?
Answer: > 100 µM (inactive)

Question: What does the source list for `COc1ccc(C2SCC(=O)N2c2ccc(-n3c(-c4ccccc4)nc4ccccc4c3=O)cc2)cc1OC` (stereo not given)?
Answer: GI50 (786-0): > 100 µM (inactive); GI50 (A498): > 100 µM (inactive); GI50 (A549): > 100 µM (inactive); GI50 (ACHN): > 100 µM (inactive); GI50 (BT-549): > 100 µM (inactive); GI50 (CAKI-1): > 100 µM (inactive); GI50 (CCRF-CEM): > 100 µM (inactive); GI50 (COLO 205): > 100 µM (inactive); GI50 (EKVX): > 100 µM (inactive); GI50 (HCC 2998): > 100 µM (inactive); GI50 (HCT-116): > 100 µM (inactive); GI50 (HCT-15): > 100 µM; GI50 (HL-60): > 100 µM (inactive); GI50 (HOP-62): > 100 µM (inactive); GI50 (HT-29): > 100 µM (inactive); GI50 (Hs-578T): 99.8 µM (inactive); GI50 (IGROV-1): > 100 µM (inactive); GI50 (K562): > 100 µM (inactive); GI50 (KM12): > 100 µM (inactive); GI50 (LOX IMVI): > 100 µM (inactive); GI50 (M14): > 100 µM (inactive); GI50 (MCF7): > 100 µM (inactive); GI50 (MDA-MB-231): > 100 µM (inactive); GI50 (MDA-MB-435): > 100 µM (inactive); GI50 (MDA-N): > 100 µM (inactive); GI50 (MOLT-4): 24.5 µM (inactive); GI50 (Malme-3M): > 100 µM (inactive); GI50 (NCI-H226): 31.3 µM (inactive); GI50 (NCI-H23): > 100 µM (inactive); GI50 (NCI-H460): > 100 µM (inactive); GI50 (NCI-H522): 90.6 µM (inactive); GI50 (NCI/ADR-RES): > 100 µM (inactive); GI50 (OVCAR-3): > 100 µM (inactive); GI50 (OVCAR-4): > 10 µM (inactive); GI50 (OVCAR-5): > 100 µM (inactive); GI50 (OVCAR-8): > 100 µM (inactive); GI50 (PC-3): 71.3 µM (inactive); GI50 (RPMI-8226): > 100 µM (inactive); GI50 (SF-268): > 100 µM (inactive); GI50 (SF-295): > 100 µM (inactive); GI50 (SF-539): > 100 µM (inactive); GI50 (SK-MEL-28): > 100 µM (inactive); GI50 (SK-MEL-2): > 100 µM (inactive); GI50 (SK-MEL-5): > 100 µM (inactive); GI50 (SK-OV-3): > 100 µM (inactive); GI50 (SN12C): > 100 µM (inactive); GI50 (SNB-19): > 100 µM (inactive); GI50 (SNB-75): 3.11 µM (inactive); GI50 (SR): > 100 µM (inactive); GI50 (SW-620): > 100 µM (inactive); GI50 (T47D): 90.6 µM (inactive); GI50 (TK-10): > 100 µM (inactive); GI50 (U-251): > 100 µM (inactive); GI50 (UACC-257): > 100 µM (inactive); GI50 (UACC-62): 62.1 µM (inactive); GI50 (UO-31): 12.9 µM (inactive)
